Starred links: 1 amine or outer side, 2 acyl side, 3 side chain; linkers in the order of their positions; H or OH if unused. Non-standard residues stand in square brackets, D forms with d. Residues, ends and D or L forms follow the SMILES beside them. *: point of attachment. Exatecan = CC[C@@]1(O)C(=O)OCc2c1cc1n(c2=O)Cc2c-1nc1cc(F)c(C)c3c1c2[C@@H](N*)CC3; Propanoyl(3-maleimido) = O=C1C=CC(=O)N1CCC(=O)*; PABC = O=C(OCc1ccc(N[*:1])cc1)[*:2]
What was measured:
topo I/DNA complex = biological target: T1, topo I/DNA complex (Homo sapiens, UniProt P11387); settings: versus SN38 (the active metabolite of irinotecan); cited from earlier work
T1 sequence (P11387 1-765): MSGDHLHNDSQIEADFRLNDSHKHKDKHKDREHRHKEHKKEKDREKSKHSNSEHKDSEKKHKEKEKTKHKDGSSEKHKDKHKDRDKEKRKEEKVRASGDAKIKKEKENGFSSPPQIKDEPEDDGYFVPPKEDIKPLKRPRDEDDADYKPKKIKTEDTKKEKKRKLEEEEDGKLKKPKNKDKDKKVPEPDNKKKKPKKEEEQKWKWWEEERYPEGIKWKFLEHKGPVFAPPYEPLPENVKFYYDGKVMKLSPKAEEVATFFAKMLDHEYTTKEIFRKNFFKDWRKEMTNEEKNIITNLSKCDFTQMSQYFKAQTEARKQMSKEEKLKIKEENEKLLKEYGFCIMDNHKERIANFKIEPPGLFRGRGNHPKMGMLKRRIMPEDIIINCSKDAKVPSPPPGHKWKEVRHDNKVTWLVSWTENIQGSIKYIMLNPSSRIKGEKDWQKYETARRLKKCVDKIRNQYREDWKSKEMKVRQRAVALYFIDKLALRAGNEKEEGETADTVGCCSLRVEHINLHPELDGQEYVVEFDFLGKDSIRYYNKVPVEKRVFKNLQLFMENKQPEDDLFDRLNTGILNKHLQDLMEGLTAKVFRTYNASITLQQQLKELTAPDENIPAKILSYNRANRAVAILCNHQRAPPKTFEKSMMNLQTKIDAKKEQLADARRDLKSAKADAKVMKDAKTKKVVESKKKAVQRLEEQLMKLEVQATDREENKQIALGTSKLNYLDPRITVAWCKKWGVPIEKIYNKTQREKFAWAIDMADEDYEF

a variety of cell lines = settings: versus SN38; cited from earlier work
[1] = RP-HPLC retention time correlated with hydrophobicity; format: physicochemical; settings: high Rt = hydrophobic, low Rt = hydrophilic
Procedure: A correlation study was also carried out using Reverse-Phase HPLC (RP-HPLC). The two constructs were injected in RP-HPLC and retention times (Rt) correlated with hydrophobicity—i.e., high Rt was associated to hydrophobic constructs whereas low Rt to hydrophilic ones.

[2] = Aggregation during conjugation to a test antibody (% monomer by SEC); format: physicochemical
Procedure: 2 mg of monoclonal antibody GB01 at 8.87 mg/ml was pH adjusted with 5% 0.5 M Tris, 0.025 M EDTA, pH 8.5 and reduced with 2.3 mol. eq. TCEP and then conjugated with 6 mol. eq. drug linker. After buffer exchange into 30 mM Histidine, 175 mM Sucrose pH 6.0/PBS, the drug to antibody ratio (DAR) was by HIC/LC-MS and % Monomer by size exclusion chromatography (SEC). Percentage monomer values of 95% or greater are assessed as low aggregation.
Aggregation levels were assessed during the conjugation to a test antibody. Conjugation was performed as described above for ADC1.
During conjugation, we are ideally targeting a monomer content or percentage monomer of 95% or above. Low percentage monomer values usually translate to a higher degree of aggregation. One could therefore agree that percentage monomer values of 95% or higher mean very low levels of aggregation or none, whereas values below this threshold often translate to higher levels of aggregation.

Compound	potency relative to SN38 at stabilizing the topo I/DNA complex (topo I/DNA complex)	potency relative to SN38 as a cytotoxin (a variety of cell lines)	Rt [1] [min]	Aggregation [2]	Aggregation (% monomer) ([2]; 95% or greater = low aggregation) [%]
CC[C@@]1(O)C(=O)OCc2c1cc1n(c2=O)Cc2c-1nc1cc(F)c(C)c3c1c2[C@@H](N)CC3 [Exatecan]	about 2.5 fold	about 2.5 fold			
CC[C@@]1(O)C(=O)OCc2c1cc1n(c2=O)Cc2c-1nc1cc(F)c(C)c3c1c2[C@@H](NC(=O)OCc1ccc(NC(=O)[C@H](C)NC(=O)[C@@H](NC(=O)CNC(=O)CNC(=O)CNC(=O)CNC(=O)CNC(=O)CCN2C(=O)C=CC2=O)C(C)C)cc1)CC3 [Mal-Gly5-VA-PABC-Exatecan] ({Propanoyl(3-maleimido)}-GGGGGVA[PABC]-Exatecan)			9.76	None	98

Reference: patent US20250121084A1, “ANTI-CLAUDIN-6 CONJUGATES” (priority 2023, published 2025)
